What is called IC50 is the concentration that gives 50% inhibition. A word on the EC50: it is the midpoint of the concentration-response curve.

Each structure is given as a SMILES string.

The record followed here is patent publication US11273165B2, “Applications for estradiol in preparing anti-small cell lung cancer and/or ovarian cancer and/or osteosarcoma products” (SHANGHAI JIAO TONG UNIVERSITY, priority 2015, dated 2022).

Common to all, as to type: cell-based
Test [1] concerns NCI-H82 small-cell lung cancer cells. Kind of test: CellTiter-Glo luminescent cell viability assay, NCI-H82 small-cell lung cancer cells. The following applies: Homo sapiens, 72 hours. How it is done:
(§1) In example 1, CELLTITER-GLO was used to test estradiol against small-cell lung cancer and/or ovarian cancer and/or osteosarcoma epithelial cell carcinoma 1. Cell plating • a) The complete medium required for each cell was prepared. • b) Before beginning the experiment, the name of the drug screened for the cells marked on the 100 mm petri dish was confirmed as well as information such as the passage time and number of passages to ensure the experiment was error-free. • c) Refer to steps d) through i) for procedures for adherent cells; refer to steps j) through l) for procedures for suspension cells. • d) When using aseptic technique, a vacuum pump was used to draw the cell culture medium. • e) 2 ml of a sterile PBS solution was used to rinse the cell surface, and a vacuum pump was used to aspirate the PBS waste. • f) A 1 ml 0.25% (w/v) Trypsin-0.038% (w/v) EDTA solution was gently added to the petri dish for cell digestion, and after gently mixing several times, the solution covered the cell surfaces. […]
(In general: In ATP-based viability assays light output follows the ATP content of the culture.)

In the next test the test system is U2OS osteosarcoma cells. The experiment in a line: CellTiter-Glo luminescent cell viability assay, U2OS osteosarcoma cells. The following applies: Homo sapiens, 72 hours. The method, then: as §1
Test [2] relates to SKOV-3 ovarian cancer cells. Kind of test: CellTiter-Glo luminescent cell viability assay, SKOV-3 ovarian cancer cells. The following applies: Homo sapiens, 72 hours. How it is done:
as §1

Test [3] relates to NCI-H810 human hepatoma cells. The experiment in a line: CellTiter-Glo luminescent cell viability assay, NCI-H810 human hepatoma cells. The following applies: 72 hours. The method, then: as §1
The test system of test [4] is SNU-475 human hepatoma cells. The experiment in a line: CellTiter-Glo luminescent cell viability assay, SNU-475 human hepatoma cells. The following applies: 72 hours.

Take `C[C@]12CC[C@@H]3c4ccc(O)cc4CC[C@H]3[C@@H]1CC[C@@H]2O` [estradiol]: the IC50 in test [1] was 16.3 µM; in the test on U2OS osteosarcoma cells, 32.7 µM; in test [2] (SK-OV-3, SKOV-3 ovarian cancer cells) it was 3.07 µM; in test [3] it was ≥ 100 µM; in test [4], ≥ 100 µM. Also, the EC50 in test [1] (read-out: EC50 (estradiol sensitivity to small-cell lung cancer, FIG. 3)) came out at 15.3 µM; in the test on U2OS osteosarcoma cells (read-out: EC50 (estradiol sensitivity to osteosarcoma, FIG. 4)), 28.8 µM; in test [2] (SK-OV-3, ovarian cancer cells, read-out: EC50 (estradiol sensitivity to ovarian cancer, FIG. 2)) it was 3.03 µM.
